Laboratory results: patent publication US20080009418A1, “Selective Inhibitors” (Alchemia LTD., priority 2004, published 2008)

What was measured:
Human Melanocortin (MC4) = target: T1, Human Melanocortin (MC4) (Homo sapiens, UniProt P32245); test: Radioligand binding, human melanocortin MC4 membranes, FlashPlate, [125I]-NDP-αMSH; details: compound at 10 μM, [125I]-NDP-αMSH
T1 construct: purchased Perkin Elmer Biosignal
Method in brief: (§1)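 Cloned human receptor membranes were coated onto FlashPlate wells and incubated with radioligand and compound (added from a 0.5 mM DMSO daughter plate) for 1 hour at room temperature in the dark. Scintillation counting gave percent inhibition, with DMSO defining total and reference ligand defining non-specific binding.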

[1] = target: T2, Human melanin-concentrating hormone (MCH1) (Homo sapiens, UniProt Q99705); test: Radioligand binding, human melanin-concentrating hormone MCH1 membranes, FlashPlate, [125I]-S36057; details: compound at 10 μM; for A6: inhibition of radioligand binding, human melanin-concentrating hormone (MCH1) / A6 radioligand binding, percentage inhibition: [125I]-S36057
T2 construct: purchased Perkin Elmer Biosignal
T2 sequence (Q99705 whole entry): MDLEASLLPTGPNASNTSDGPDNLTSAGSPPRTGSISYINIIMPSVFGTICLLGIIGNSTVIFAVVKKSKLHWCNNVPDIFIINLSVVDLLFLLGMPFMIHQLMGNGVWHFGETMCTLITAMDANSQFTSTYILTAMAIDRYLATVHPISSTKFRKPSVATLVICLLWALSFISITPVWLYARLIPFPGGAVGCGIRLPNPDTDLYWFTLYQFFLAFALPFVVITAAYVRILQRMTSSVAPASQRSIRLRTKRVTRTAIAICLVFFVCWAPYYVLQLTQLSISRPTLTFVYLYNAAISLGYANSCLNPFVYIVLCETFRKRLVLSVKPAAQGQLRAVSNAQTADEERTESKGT
Method in brief: as §1

Human μ-opioid (MOP) = target: T3, Human μ-opioid (MOP) (Homo sapiens, UniProt P35372); test: Radioligand binding, human μ-opioid (MOP) membranes, FlashPlate, [3H]-Naloxone; details: compound at 10 μM, [3H]-Naloxone
T3 construct: purchased Perkin Elmer Biosignal
T3 sequence (P35372 whole entry): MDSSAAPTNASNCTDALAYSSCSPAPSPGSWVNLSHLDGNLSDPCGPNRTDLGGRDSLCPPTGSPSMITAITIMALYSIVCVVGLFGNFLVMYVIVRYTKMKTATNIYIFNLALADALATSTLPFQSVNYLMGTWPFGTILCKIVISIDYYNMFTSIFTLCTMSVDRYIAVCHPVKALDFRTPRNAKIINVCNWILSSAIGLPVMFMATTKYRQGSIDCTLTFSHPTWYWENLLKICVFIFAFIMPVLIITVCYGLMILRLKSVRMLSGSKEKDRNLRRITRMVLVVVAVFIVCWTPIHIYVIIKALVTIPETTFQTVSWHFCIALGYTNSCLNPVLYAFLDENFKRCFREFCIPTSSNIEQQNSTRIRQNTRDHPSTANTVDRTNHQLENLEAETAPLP
Method in brief: as §1

Mouse urotensin (mUR2) = target: T4, Mouse urotensin (mUR2) (Mus musculus, UniProt Q8VIH9); test: Radioligand binding, mouse urotensin mUR2 membranes, FlashPlate, [125I]-Urotensin II; details: compound at 10 μM, [125I]-Urotensin II
T4 construct: purchased Perkin Elmer Biosignal
T4 sequence (Q8VIH9 1-385): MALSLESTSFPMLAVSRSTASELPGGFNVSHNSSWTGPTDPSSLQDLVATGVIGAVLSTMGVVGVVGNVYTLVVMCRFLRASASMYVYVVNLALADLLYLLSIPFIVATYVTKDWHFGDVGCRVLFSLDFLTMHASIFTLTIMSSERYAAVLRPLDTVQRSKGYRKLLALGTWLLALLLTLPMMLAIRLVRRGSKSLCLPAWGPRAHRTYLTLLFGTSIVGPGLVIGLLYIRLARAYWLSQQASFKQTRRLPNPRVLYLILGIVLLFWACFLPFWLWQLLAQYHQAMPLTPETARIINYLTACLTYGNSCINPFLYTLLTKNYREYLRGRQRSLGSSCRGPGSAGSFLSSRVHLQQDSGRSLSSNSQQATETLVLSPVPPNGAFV
Method in brief: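 Cloned mouse urotensin (mUR2) receptor membranes from Perkin Elmer Biosignal were immobilized in FlashPlate microplates using a proprietary coating. Each well got 19.5 μl buffer, then 0.5 μl of DMSO, reference ligand, or compound. Adding 5 μl of [125I]-Urotensin II, diluted to 5× final concentration in binding buffer, started binding. Plates were sealed with TopSeal-A and incubated 1 hour at room temperature in the dark. Wells were counted for 30 seconds each on a TopCount after a 60-second delay, and percentage inhibition was calculated.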

Human κ-Opioid (KOP) = target: T5, Human κ-Opioid (KOP) (Homo sapiens, UniProt P41145); test: Radioligand binding, human κ-opioid (KOP) membranes, filtration, [3H]-Diprenorphine; details: compound at 10 μM, [3H]-Diprenorphine
T5 construct: purchased Perkin Elmer Biosignal
T5 sequence (P41145 whole entry): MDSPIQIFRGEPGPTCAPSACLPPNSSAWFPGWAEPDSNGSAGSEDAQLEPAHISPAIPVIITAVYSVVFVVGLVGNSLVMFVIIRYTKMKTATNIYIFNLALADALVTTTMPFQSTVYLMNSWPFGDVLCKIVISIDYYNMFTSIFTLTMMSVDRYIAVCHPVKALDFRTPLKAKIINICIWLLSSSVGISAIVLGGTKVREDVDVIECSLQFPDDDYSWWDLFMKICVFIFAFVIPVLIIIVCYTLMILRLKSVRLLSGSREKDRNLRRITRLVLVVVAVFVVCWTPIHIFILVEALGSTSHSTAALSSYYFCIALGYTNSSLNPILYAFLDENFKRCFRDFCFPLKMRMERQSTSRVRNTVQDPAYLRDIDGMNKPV
Method in brief: (§2)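 Filtration binding on cloned human receptor membranes (1 Unit/well), [125I]-Substance P for NK1 and [3H]-Diprenorphine for KOP, 1 h at room temperature. Filters PEI-presoaked, washed with cold 50 mM Tris-HCl pH 7.4, counted by scintillation; percent inhibition calculated, reference ligand defining non-specific binding.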

[2] = target: T6, Human neuropeptide Y (NPY-Y1) (Homo sapiens, UniProt P25929); test: Radioligand binding, human neuropeptide Y NPY-Y1 membranes, FlashPlate, [125I]-PYY; details: compound at 10 μM, [125I]-PYY
T6 construct: purchased Perkin Elmer Biosignal
T6 sequence (P25929 1-384): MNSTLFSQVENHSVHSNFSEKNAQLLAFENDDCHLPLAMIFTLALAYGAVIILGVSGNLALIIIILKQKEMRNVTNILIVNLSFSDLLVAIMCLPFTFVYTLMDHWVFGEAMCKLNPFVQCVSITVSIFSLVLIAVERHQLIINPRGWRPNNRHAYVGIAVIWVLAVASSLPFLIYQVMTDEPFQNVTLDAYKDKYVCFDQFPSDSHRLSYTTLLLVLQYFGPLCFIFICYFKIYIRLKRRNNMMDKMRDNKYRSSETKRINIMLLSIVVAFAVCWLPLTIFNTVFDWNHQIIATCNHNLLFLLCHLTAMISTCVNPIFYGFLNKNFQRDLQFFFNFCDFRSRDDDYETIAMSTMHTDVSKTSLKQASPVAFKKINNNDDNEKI
Method in brief: as §1

Human neurokinin (NK1) = target: T7, Human neurokinin (NK1) (Homo sapiens, UniProt P25103); test: Radioligand binding, human neurokinin NK1 membranes, filtration, [125I]-Substance P; details: compound at 10 μM, [125I]-Substance P
T7 construct: purchased Perkin Elmer Biosignal
T7 sequence (P25103 whole entry): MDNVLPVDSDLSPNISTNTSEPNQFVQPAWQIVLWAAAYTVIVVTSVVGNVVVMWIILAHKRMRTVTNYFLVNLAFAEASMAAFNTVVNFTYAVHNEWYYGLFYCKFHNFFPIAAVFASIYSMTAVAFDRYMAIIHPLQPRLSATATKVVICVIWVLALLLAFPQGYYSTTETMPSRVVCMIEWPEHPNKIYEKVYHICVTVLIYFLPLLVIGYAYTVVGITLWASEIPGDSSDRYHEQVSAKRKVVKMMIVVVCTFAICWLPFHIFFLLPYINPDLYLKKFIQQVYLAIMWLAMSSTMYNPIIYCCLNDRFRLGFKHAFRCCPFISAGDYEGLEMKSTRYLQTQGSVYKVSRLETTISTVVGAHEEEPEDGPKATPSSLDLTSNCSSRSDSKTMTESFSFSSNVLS
Method in brief: as §2

Human melanocortin (MC5) = target: T8, Human melanocortin (MC5) (Homo sapiens, UniProt P33032); test: Radioligand binding, human melanocortin MC5 membranes, FlashPlate, [125I]-NDP-αMSH; details: compound at 10 μM, [125I]-NDP-αMSH
T8 construct: purchased Perkin Elmer Biosignal
T8 sequence (P33032 whole entry): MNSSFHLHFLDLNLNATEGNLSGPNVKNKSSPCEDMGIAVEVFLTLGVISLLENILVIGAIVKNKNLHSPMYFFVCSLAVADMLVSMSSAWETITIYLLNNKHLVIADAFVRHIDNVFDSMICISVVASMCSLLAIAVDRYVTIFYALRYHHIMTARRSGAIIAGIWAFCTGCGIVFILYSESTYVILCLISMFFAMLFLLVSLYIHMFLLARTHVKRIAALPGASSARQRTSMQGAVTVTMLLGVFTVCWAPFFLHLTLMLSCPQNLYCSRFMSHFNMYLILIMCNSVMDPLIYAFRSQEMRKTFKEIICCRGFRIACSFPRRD
Method in brief: as §1

Human opioid (ORL1) = target: T9, Human opioid (ORL1) (Homo sapiens, UniProt P41146); test: Radioligand binding, human opioid ORL1 membranes, FlashPlate, [125I]-Nociceptin; details: compound at 10 μM, [125I]-Nociceptin
T9 construct: purchased Perkin Elmer Biosignal
T9 sequence (P41146 whole entry): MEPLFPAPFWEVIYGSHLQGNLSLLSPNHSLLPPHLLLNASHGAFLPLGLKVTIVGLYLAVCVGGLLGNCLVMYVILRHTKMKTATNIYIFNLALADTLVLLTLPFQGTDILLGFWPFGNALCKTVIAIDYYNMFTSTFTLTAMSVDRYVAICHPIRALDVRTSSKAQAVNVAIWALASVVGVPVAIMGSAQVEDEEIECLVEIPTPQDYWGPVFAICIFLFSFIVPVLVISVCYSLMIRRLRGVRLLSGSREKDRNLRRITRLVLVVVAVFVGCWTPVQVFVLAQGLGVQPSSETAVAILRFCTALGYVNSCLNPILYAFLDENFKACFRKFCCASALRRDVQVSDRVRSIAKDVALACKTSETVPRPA
Method in brief: as §1

Human δ-opioid (DOP) = target: T10, Human δ-opioid (DOP) (Homo sapiens, UniProt P41143); test: Radioligand binding, human δ-opioid (DOP) membranes, FlashPlate, [3H]-Bremazocine; details: compound at 10 μM, [3H]-Bremazocine
T10 construct: purchased Perkin Elmer Biosignal
T10 sequence (P41143 whole entry): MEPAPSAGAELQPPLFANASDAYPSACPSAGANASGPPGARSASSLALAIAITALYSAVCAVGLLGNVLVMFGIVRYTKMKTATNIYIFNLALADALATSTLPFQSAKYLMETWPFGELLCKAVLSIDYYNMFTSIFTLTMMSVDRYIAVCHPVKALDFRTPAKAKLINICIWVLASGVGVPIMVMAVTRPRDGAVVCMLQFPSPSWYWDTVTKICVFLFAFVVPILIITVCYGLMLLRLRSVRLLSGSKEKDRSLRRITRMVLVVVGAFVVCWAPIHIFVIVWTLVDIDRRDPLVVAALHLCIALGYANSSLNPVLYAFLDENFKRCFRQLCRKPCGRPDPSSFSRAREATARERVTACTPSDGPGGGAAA
Method in brief: as §1

Human Melanocortin (MC3) = target: T11, Human Melanocortin (MC3) (Homo sapiens, UniProt P41968); test: Radioligand binding, human melanocortin MC3 membranes, FlashPlate, [125I]-NDP-αMSH; details: compound at 10 μM, [125I]-NDP-αMSH
T11 construct: purchased Perkin Elmer Biosignal
T11 sequence (P41968 whole entry): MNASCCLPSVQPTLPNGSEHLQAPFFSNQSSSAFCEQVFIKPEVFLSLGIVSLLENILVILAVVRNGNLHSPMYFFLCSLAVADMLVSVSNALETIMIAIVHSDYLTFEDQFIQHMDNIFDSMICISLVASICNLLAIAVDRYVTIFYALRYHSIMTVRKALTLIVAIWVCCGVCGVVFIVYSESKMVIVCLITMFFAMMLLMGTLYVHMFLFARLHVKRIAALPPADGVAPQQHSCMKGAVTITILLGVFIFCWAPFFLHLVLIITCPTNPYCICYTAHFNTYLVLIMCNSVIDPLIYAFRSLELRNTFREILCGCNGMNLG
Method in brief: as §1

T1 sequence (P32245 whole entry): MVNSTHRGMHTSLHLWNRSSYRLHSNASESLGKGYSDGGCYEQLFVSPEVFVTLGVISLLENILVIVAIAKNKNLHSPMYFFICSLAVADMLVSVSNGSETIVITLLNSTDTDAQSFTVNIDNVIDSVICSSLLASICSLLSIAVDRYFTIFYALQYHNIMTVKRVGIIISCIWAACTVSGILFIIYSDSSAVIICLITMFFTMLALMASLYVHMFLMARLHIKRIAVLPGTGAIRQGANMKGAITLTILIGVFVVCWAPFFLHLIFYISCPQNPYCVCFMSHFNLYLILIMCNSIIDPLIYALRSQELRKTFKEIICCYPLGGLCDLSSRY

SMILES	A6: inhibition of radioligand binding, human melanin-concentrating hormone (MCH1) [1]	A11: inhibition of radioligand binding, mouse urotensin (mUR2) (Mouse urotensin (mUR2))	A2: inhibition of radioligand binding, human κ-opioid (KOP) (Human κ-Opioid (KOP))	A9: inhibition of radioligand binding, human neuropeptide Y (NPY-Y1) [2]	A5: inhibition of radioligand binding, human melanocortin (MC5) (Human melanocortin (MC5))	A1: inhibition of radioligand binding, human δ-opioid (DOP) (Human δ-opioid (DOP))	A3: inhibition of radioligand binding, human melanocortin (MC3) (Human Melanocortin (MC3))	A4 radioligand binding, percentage inhibition (Human Melanocortin (MC4))	A6 radioligand binding, percentage inhibition [1]	A7 radioligand binding, percentage inhibition (Human μ-opioid (MOP))	A11 radioligand binding, percentage inhibition (Mouse urotensin (mUR2))	A2 radioligand binding, percentage inhibition (Human κ-Opioid (KOP))	A9 radioligand binding, percentage inhibition [2]	A8 radioligand binding, percentage inhibition (Human neurokinin (NK1))	A5 radioligand binding, percentage inhibition (Human melanocortin (MC5))	A10 radioligand binding, percentage inhibition (Human opioid (ORL1))	A1 radioligand binding, percentage inhibition (Human δ-opioid (DOP))	A3 radioligand binding, percentage inhibition (Human Melanocortin (MC3))	further results
COCC1OC(OCc2ccc3ccccc3c2)C(NC(=O)CN)C(OCc2ccc(-c3ccccc3)cc2)C1O (stereo not shown) [compound 241]																			A4: inhibition of radioligand binding (Human Melanocortin (MC4); FlashPlate): + (“+” indicates greater than 50% inhibition at 10 μM); A6: inhibition of radioligand binding ([1]; [125I]-S36057, FlashPlate): − (“−” indicates less than 50% inhibition at 10 μM); A7: inhibition of radioligand binding (Human μ-opioid (MOP); FlashPlate): − (“−” indicates less than 50% inhibition at 10 μM); A11: inhibition of radioligand binding (Mouse urotensin (mUR2); FlashPlate): − (“−” indicates less than 50% inhibition at 10 μM); A2: inhibition of radioligand binding (Human κ-Opioid (KOP); filtration): − (“−” indicates less than 50% inhibition at 10 μM); A9: inhibition of radioligand binding ([2]; FlashPlate): − (“−” indicates less than 50% inhibition at 10 μM); A8: inhibition of radioligand binding (Human neurokinin (NK1); filtration): + (“+” indicates greater than 50% inhibition at 10 μM); A5: inhibition of radioligand binding (Human melanocortin (MC5); FlashPlate): + (“+” indicates greater than 50% inhibition at 10 μM); A10: inhibition of radioligand binding (Human opioid (ORL1); FlashPlate): − (“−” indicates less than 50% inhibition at 10 μM); A1: inhibition of radioligand binding (Human δ-opioid (DOP); FlashPlate): − (“−” indicates less than 50% inhibition at 10 μM); A3: inhibition of radioligand binding (Human Melanocortin (MC3); FlashPlate): − (“−” indicates less than 50% inhibition at 10 μM)
CC(=O)N[C@H]1C(NC(=O)CCN)O[C@H](CO)[C@@H](O)[C@@H]1OCc1cccc2ccccc12 (stereo partly shown) [compound 356]	− (“−” indicates less than 50% inhibition at 10 μM)	− (“−” indicates less than 50% inhibition at 10 μM)	− (“−” indicates less than 50% inhibition at 10 μM)	+ (“+” indicates greater than 50% inhibition at 10 μM)	− (“−” indicates less than 50% inhibition at 10 μM)	− (“−” indicates less than 50% inhibition at 10 μM)	− (“−” indicates less than 50% inhibition at 10 μM)												A4: inhibition of radioligand binding, human melanocortin (MC4) (Human Melanocortin (MC4)): − (“−” indicates less than 50% inhibition at 10 μM); A7: inhibition of radioligand binding, human μ-opioid (MOP) (Human μ-opioid (MOP)): − (“−” indicates less than 50% inhibition at 10 μM); A8: inhibition of radioligand binding, human neurokinin (NK1) (Human neurokinin (NK1)): − (“−” indicates less than 50% inhibition at 10 μM); A10: inhibition of radioligand binding, human opioid (ORL1) (Human opioid (ORL1)): − (“−” indicates less than 50% inhibition at 10 μM)
CO[C@H]1[C@H](O)[C@@H](COCc2ccc(-c3ccccc3)cc2)OC(OCCc2ccccc2)[C@@H]1NC(=O)CCNC(=N)N (stereo partly shown) [compound 110]								+ (“+” indicates greater than 50% inhibition at 10 μM)	− (“−” indicates less than 50% inhibition at 10 μM)	− (“−” indicates less than 50% inhibition at 10 μM)	− (“−” indicates less than 50% inhibition at 10 μM)	− (“−” indicates less than 50% inhibition at 10 μM)	− (“−” indicates less than 50% inhibition at 10 μM)	− (“−” indicates less than 50% inhibition at 10 μM)	+ (“+” indicates greater than 50% inhibition at 10 μM)	− (“−” indicates less than 50% inhibition at 10 μM)	− (“−” indicates less than 50% inhibition at 10 μM)	− (“−” indicates less than 50% inhibition at 10 μM)	
NCCC(=O)NC1C(OCc2ccc(Cl)cc2)OC(COCc2ccc(Cl)cc2)C(O)C1OCc1ccccc1 (single isomer, unassigned) [compound 488]	− (“−” indicates less than 50% inhibition at 10 μM)	− (“−” indicates less than 50% inhibition at 10 μM)	− (“−” indicates less than 50% inhibition at 10 μM)	− (“−” indicates less than 50% inhibition at 10 μM)	+ (“+” indicates greater than 50% inhibition at 10 μM)	− (“−” indicates less than 50% inhibition at 10 μM)	− (“−” indicates less than 50% inhibition at 10 μM)												A4: inhibition of radioligand binding, human melanocortin (MC4) (Human Melanocortin (MC4); 10 µM): + (“+” indicates greater than 50% inhibition at 10 μM); A7: inhibition of radioligand binding, human μ-opioid (MOP) (Human μ-opioid (MOP); 10 µM): − (“−” indicates less than 50% inhibition at 10 μM); A8: inhibition of radioligand binding, human neurokinin (NK1) (Human neurokinin (NK1); 10 µM): + (“+” indicates greater than 50% inhibition at 10 μM); A10: inhibition of radioligand binding, human opioid (ORL1) (Human opioid (ORL1); 10 µM): + (“+” indicates greater than 50% inhibition at 10 μM)
CO[C@H]1[C@H](O)[C@@H](COCc2ccc3ccccc3c2)OC(OCc2ccc(Cl)cc2)[C@@H]1NC(=O)CNC(=N)N (stereo partly shown) [compound 97]								+ (“+” indicates greater than 50% inhibition at 10 μM)	− (“−” indicates less than 50% inhibition at 10 μM)	− (“−” indicates less than 50% inhibition at 10 μM)	− (“−” indicates less than 50% inhibition at 10 μM)	− (“−” indicates less than 50% inhibition at 10 μM)	− (“−” indicates less than 50% inhibition at 10 μM)	+ (“+” indicates greater than 50% inhibition at 10 μM)	+ (“+” indicates greater than 50% inhibition at 10 μM)	+ (“+” indicates greater than 50% inhibition at 10 μM)	− (“−” indicates less than 50% inhibition at 10 μM)	+ (“+” indicates greater than 50% inhibition at 10 μM)	
